“And” between values parts separate entries of the source, which are not always exact repeats. Equal entries are not always repeated. Toxic doses and inconclusive results are not listed. No stated cut-off is given here; in the data, active means T/C of 150% or more; inactive means T/C below 125%.
System: L1210 leukemia ip in BDF1 mice, survival T/C
Assay: NCI In Vivo Anticancer Drug Screen. Data for tumor model L1210 Leukemia (intraperitoneal) in B6D2F1 (BDF1) mice
Details: endpoint: mean survival time, higher = longer survival
Outline: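 Antitumor effect is assessed in tumor-bearing animals. Survival in the compound arm is compared with a vehicle-dosed control arm and expressed as their quotient.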

[1] = dose: 12.5 mg/kg/injection, schedule: Q04DX003 (ip), vehicle: Klucel (hydroxypropylcellulose) (HPC)
[2] = dose: 50.0 mg/kg/injection, schedule: Q04DX003 (ip), vehicle: Klucel (hydroxypropylcellulose) (HPC)
[3] = dose: 100.0 mg/kg/injection, schedule: Q04DX003 (ip), vehicle: saline
[4] = dose: 200.0 mg/kg/injection, schedule: Q04DX003 (ip), vehicle: saline
[5] = dose: 400.0 mg/kg/injection, schedule: Q04DX003 (ip), vehicle: saline
[6] = dose: 100.0 mg/kg/injection, schedule: Q01DX001 (ip), vehicle: saline
[7] = dose: 200.0 mg/kg/injection, schedule: Q01DX001 (ip), vehicle: saline
[8] = dose: 400.0 mg/kg/injection, schedule: Q01DX001 (ip), vehicle: saline
[9] = dose: 100.0 mg/kg/injection, schedule: Q04DX002 (ip), vehicle: Klucel (hydroxypropylcellulose) (HPC)
[10] = dose: 200.0 mg/kg/injection, schedule: Q04DX002 (ip), vehicle: Klucel (hydroxypropylcellulose) (HPC)
[11] = dose: 400.0 mg/kg/injection, schedule: Q04DX002 (ip), vehicle: Klucel (hydroxypropylcellulose) (HPC)

Measured: T/C

CC1(C)N=C(N)N=C(N)N1c1cccc(CCCCc2cccc(S(=O)(=O)F)c2)c1
inactive: dose: 6.25 mg/kg/injection, schedule: Q01DX009 (ip), vehicle: saline sonified 100 % of control | dose: 6.25 mg/kg/injection, schedule: Q04DX003 (ip), vehicle: saline sonified 93 % of control | dose: 12.5 mg/kg/injection, schedule: Q01DX009 (ip), vehicle: saline sonified 88 % of control | dose: 12.5 mg/kg/injection, schedule: Q04DX003 (ip), vehicle: saline sonified 98 % of control | dose: 25.0 mg/kg/injection, schedule: Q01DX009 (ip), vehicle: saline sonified 92 % of control | dose: 25.0 mg/kg/injection, schedule: Q04DX003 (ip), vehicle: saline sonified 93 % of control

COc1ccc(C23OC2Oc2cc(OC4CCCCO4)ccc2C3=O)cc1 (centres undefined)
inactive: dose: 50.0 mg/kg/injection, schedule: Q01DX001 (sc), vehicle: steriod suspending solution 103 % of control | dose: 100.0 mg/kg/injection, schedule: Q01DX001 (sc), vehicle: steriod suspending solution 108 % of control | dose: 200.0 mg/kg/injection, schedule: Q01DX001 (sc), vehicle: steriod suspending solution 106 % of control | dose: 400.0 mg/kg/injection, schedule: Q01DX001 (sc), vehicle: steriod suspending solution 103 % of control

O=S(CCCl)CCCl
inactive: dose: 0.21 mg/kg/injection, schedule: Q04DX003 (ip), vehicle: Klucel (hydroxypropylcellulose) (HPC) 95 % of control | dose: 0.42 mg/kg/injection, schedule: Q04DX003 (ip), vehicle: Klucel (hydroxypropylcellulose) (HPC) 93 % of control | dose: 0.85 mg/kg/injection, schedule: Q04DX003 (ip), vehicle: Klucel (hydroxypropylcellulose) (HPC) 98 % of control | dose: 0.9 mg/kg/injection, schedule: Q01DX009 (ip), vehicle: Klucel (hydroxypropylcellulose) (HPC) 116 % of control | dose: 1.3 mg/kg/injection, schedule: Q01DX009 (ip), vehicle: Klucel (hydroxypropylcellulose) (HPC) 116 % of control | dose: 2.0 mg/kg/injection, schedule: Q04DX003 (ip), vehicle: Klucel (hydroxypropylcellulose) (HPC) 120 % of control | dose: 2.6 mg/kg/injection, schedule: Q04DX003 (ip), vehicle: Klucel (hydroxypropylcellulose) (HPC) 123 % of control | dose: 6.0 mg/kg/injection, schedule: Q04DX003 (ip), vehicle: Klucel (hydroxypropylcellulose) (HPC) 115 % of control | dose: 8.0 mg/kg/injection, schedule: Q01DX009 (ip), vehicle: Klucel (hydroxypropylcellulose) (HPC) 109 % of control | dose: 8.0 mg/kg/injection, schedule: Q04DX003 (ip), vehicle: Klucel (hydroxypropylcellulose) (HPC) 114 % of control | [1] 90 % of control | [2] 89 % of control

CCOc1ccn(C2OC(CO)C(OC3OC(COC(C)=O)C(OC(C)=O)C(OC(C)=O)C3OC(C)=O)C(OC(C)=O)C2OC(C)=O)c(=O)n1 (centres undefined)
inactive: dose: 22.5 mg/kg/injection, schedule: Q01DX001 (ip), vehicle: carboxymethylcellulose (CMC) 100 % of control | dose: 45.0 mg/kg/injection, schedule: Q01DX001 (ip), vehicle: carboxymethylcellulose (CMC) 103 % of control | dose: 90.0 mg/kg/injection, schedule: Q01DX001 (ip), vehicle: carboxymethylcellulose (CMC) 97 % of control | dose: 180.0 mg/kg/injection, schedule: Q01DX001 (ip), vehicle: carboxymethylcellulose (CMC) 100 % of control

CCC/C=C(/CC(=O)O)C(=O)O
inactive: [3] 95 % of control | [4] 100 % of control | [5] 97 % of control

CC(C)CC(=O)/C(CC(C)C)=N/O
inactive: dose: 50.0 mg/kg/injection, schedule: Q01DX001 (ip), vehicle: saline 96 % of control | [6] 104 % of control | [7] 96 % of control | [8] 96 % of control

COc1cc(/C=N/NC(=O)Cc2cccc3ccccc23)ccc1O
inactive: dose: 100.0 mg/kg/injection, schedule: Q01DX009 (ip), vehicle: Klucel (hydroxypropylcellulose) (HPC) 109 % of control | [9] 107 % of control | dose: 200.0 mg/kg/injection, schedule: Q01DX009 (ip), vehicle: Klucel (hydroxypropylcellulose) (HPC) 93 % of control | [10] 104 % of control | dose: 400.0 mg/kg/injection, schedule: Q01DX009 (ip), vehicle: Klucel (hydroxypropylcellulose) (HPC) 98 % of control | [11] 96 % of control

COP(=O)(OCCCCCl)C(Cl)(Cl)Cl (centres undefined)
inactive: [6] 102 % of control | [7] 102 % of control | [8] 104 % of control

Cc1cc(NCC(=O)NN)ccc1Cl
inactive: dose: 50.0 mg/kg/injection, schedule: Q04DX002 (ip), vehicle: Klucel (hydroxypropylcellulose) (HPC) 103 % of control | [9] 104 % of control and 114 % of control | [10] 86 % of control

OCCNc1ccc(C2=NCCO2)cc1
inactive: dose: 100.0 mg/kg/injection, schedule: Q01DX009 (ip), vehicle: saline with Tween-80 106 % of control | dose: 200.0 mg/kg/injection, schedule: Q01DX009 (ip), vehicle: saline with Tween-80 97 % of control | dose: 400.0 mg/kg/injection, schedule: Q01DX009 (ip), vehicle: saline with Tween-80 91 % of control

NC1=Nc2cccc3cccc(c23)N1
inactive: dose: 12.5 mg/kg/injection, schedule: Q01DX009 (ip), vehicle: Klucel (hydroxypropylcellulose) (HPC) 95 % of control | [1] 95 % of control | dose: 25.0 mg/kg/injection, schedule: Q01DX009 (ip), vehicle: Klucel (hydroxypropylcellulose) (HPC) 93 % of control | dose: 25.0 mg/kg/injection, schedule: Q04DX003 (ip), vehicle: Klucel (hydroxypropylcellulose) (HPC) 92 % of control | dose: 50.0 mg/kg/injection, schedule: Q01DX009 (ip), vehicle: Klucel (hydroxypropylcellulose) (HPC) 90 % of control | [2] 98 % of control

c1ccn2nnc(-c3nnn4ccccc34)c2c1
inactive: dose: 100.0 mg/kg/injection, schedule: Q04DX002 (ip), vehicle: saline with Tween-80 102 % of control | dose: 200.0 mg/kg/injection, schedule: Q04DX002 (ip), vehicle: saline with Tween-80 95 % of control | dose: 400.0 mg/kg/injection, schedule: Q04DX002 (ip), vehicle: saline with Tween-80 91 % of control

ClC1C2CC3C1C3C2C(Cl)(Cl)Cl (centres undefined)
inactive: [9] 103 % of control | [10] 100 % of control | [11] 90 % of control

O/N=C1\c2ccccc2-c2cccc(I)c21
inactive: dose: 100.0 mg/kg/injection, schedule: Q01DX001 (ip), vehicle: carboxymethylcellulose (CMC) 92 % of control | dose: 200.0 mg/kg/injection, schedule: Q01DX001 (ip), vehicle: carboxymethylcellulose (CMC) 92 % of control | dose: 400.0 mg/kg/injection, schedule: Q01DX001 (ip), vehicle: carboxymethylcellulose (CMC) 94 % of control

NC(C(=O)O)C(=O)c1ccccc1 (centres undefined)
inactive: dose: 100.0 mg/kg/injection, schedule: Q01DX009 (ip), vehicle: saline sonified 101 % of control | [3] 102 % of control | dose: 200.0 mg/kg/injection, schedule: Q01DX009 (ip), vehicle: saline sonified 101 % of control | [4] 112 % of control | dose: 400.0 mg/kg/injection, schedule: Q01DX009 (ip), vehicle: saline sonified 106 % of control | [5] 100 % of control

— PubChem BioAssay AID248 (DTP/NCI, 2004)
